Legend:
P2X3 = target: T1, P2X3 (Homo sapiens, UniProt P56373); test: Calcium uptake assay (P2X antagonist assay, inhibition of agonist-induced calcium influx), P2X3; format: cell-based; settings: inhibition of agonist-induced calcium influx in cells expressing the receptor
T1 construct: expressed in transfected cells; host or cells: e.g. HEK293 or 1321N1
T1 sequence (P56373 1-397): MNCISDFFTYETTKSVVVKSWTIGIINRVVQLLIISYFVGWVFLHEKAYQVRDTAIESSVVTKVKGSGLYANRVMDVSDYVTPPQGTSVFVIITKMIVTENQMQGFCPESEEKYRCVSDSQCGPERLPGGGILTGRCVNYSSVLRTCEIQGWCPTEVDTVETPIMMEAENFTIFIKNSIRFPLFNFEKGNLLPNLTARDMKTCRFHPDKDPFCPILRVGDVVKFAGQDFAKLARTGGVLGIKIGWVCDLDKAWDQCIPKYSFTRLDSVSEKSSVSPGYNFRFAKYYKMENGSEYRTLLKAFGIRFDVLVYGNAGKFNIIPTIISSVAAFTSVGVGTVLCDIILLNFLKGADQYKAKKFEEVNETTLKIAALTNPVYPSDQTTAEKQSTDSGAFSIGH
From the text: (§1) The human P2X2/3 chimera clone is created as described by Neelands et al, and then cloned into an expression vector as above. Receptors are expressed in cells (e.g., HEK293 or 1321N1 (obtained from the ECACC)) via transient transfection using standard lipid mediated transfection, or by creation of stable transfectants for each receptor. For expression of the P2X2/3 heteromeric receptor, the P2X3 expression vector is stably transfected into a cell line already stably expressing P2X2. P2X2/3 heteromer function is isolated using pharmacological methods. Cell lines are maintained in DMEM+5% Glutamax, the appropriate level of selective antibiotic, and 10% heat inactivated FBS.
(§2) Functional activity of compounds at the P2X receptor is determined by measuring their ability to inhibit agonist-induced calcium influx. Compounds are tested for antagonist activity against the P2X2/3 chimera, the P2X3 homomer, or the P2X2/3 heteromer. At the start of each screening day, the agonist EC50 is determined. Compound % inhibition or IC50s are subsequently determined using a pre-determined agonist concentration (EC50-90 depending on cell line) as a stimulus. The agonists used are αβMeATP, ATP, or other ATP analogs. Compounds may be tested at concentrations ranging from 1 pM to 10 μM.
(§3) To test for antagonist activity, cells expressing the appropriate receptor are seeded onto 96 or 384 well plates 18-24 hours prior to assay. […] Plates are incubated at 37° C. and then equilibrated at room temperature. Antagonism of agonist-induced calcium influx is measured using a fluorescent imaging plate reader (e.g. FLIPR^TETRA, Molecular Devices, Sunnyvale, Calif.). The assay comprises two stages: a pre-treatment phase followed by a treatment phase. Compounds may be tested as follows: For the pre-treatment phase, 50 μL of 3× concentration of test compound in HBSS is added to cells containing 100 μL of dye loading media to achieve a final concentration of 1× test compound. For the treatment phase, at a set interval after pre-treatment (1-30 minutes), 50 μl, of 1× test compound plus 4× agonist solution is added, resulting in a final concentration of 1× compound and 1× agonist. […] Responses are measured as (peak fluorescence after agonist addition) minus (baseline fluorescence prior to treatment). Percent inhibition is calculated as follows: […]
(§4) IC50 values are determined by analyzing dose response data in a 4 parameter logistic fit using GraphPad Prizm.

P2X2/3 = target: T2, P2X2/3 (Homo sapiens, UniProt P56373+Q9UBL9); test: Calcium uptake assay (P2X antagonist assay, inhibition of agonist-induced calcium influx), P2X2/3; format: cell-based; settings: inhibition of agonist-induced calcium influx in cells expressing the receptor
T2 construct: expressed in transfected cells; host or cells: cell line stably expressing P2X2, stably transfected with P2X3 (e.g. HEK293 or 1321N1)
T2 sequence (Q9UBL9 1-471): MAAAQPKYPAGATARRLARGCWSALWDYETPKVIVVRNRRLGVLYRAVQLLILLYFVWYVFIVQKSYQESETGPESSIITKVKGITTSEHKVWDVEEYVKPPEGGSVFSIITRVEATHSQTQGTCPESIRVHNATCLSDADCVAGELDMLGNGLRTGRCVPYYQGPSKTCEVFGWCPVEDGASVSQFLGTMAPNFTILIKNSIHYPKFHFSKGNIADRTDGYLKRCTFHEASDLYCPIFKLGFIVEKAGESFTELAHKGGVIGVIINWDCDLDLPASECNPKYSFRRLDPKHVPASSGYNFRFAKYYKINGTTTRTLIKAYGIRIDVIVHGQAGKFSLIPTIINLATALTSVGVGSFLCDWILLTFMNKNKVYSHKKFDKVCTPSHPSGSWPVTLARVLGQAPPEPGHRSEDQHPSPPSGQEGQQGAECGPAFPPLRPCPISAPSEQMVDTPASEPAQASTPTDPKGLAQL
T2 sequence (P56373 1-397): T1 sequence (P56373 1-397)
From the text: as §1, §2, §3, §4

| IC50 (P2X3) [nM] | IC50 (P2X2/3) [nM] | Structure (SMILES) |
| --- | --- | --- |
| 41 | 286 | N#Cc1cc(Cl)ccc1N1CCc2ncnc(NCc3ccc(Cl)c(-n4cnnc4)c3)c2C1 [Compound 52, 5-Chloro-2-[4-(4-chloro-3-[1,2,4]triazol-4-yl-benzylamino)-7,8-dihydro-5H-pyrido[4,3-d]pyrimidin-6-yl]-benzonitrile] |
| 91 | 1130 | N#Cc1cc(Cl)ccc1N1CCc2ncnc(NCc3ncc(C(F)(F)F)cc3Cl)c2C1 [Compound 16, 5-Chloro-2-{4-[(3-chloro-5-trifluoromethyl-pyridin-2-ylmethyl)-amino]-7,8-dihydro-5H-pyrido[4,3-d]pyrimidin-6-yl}-benzonitrile] |
| 41 | 50 | Cc1ccc(N2CCc3ncnc(NCc4ncc(Cl)cc4Cl)c3C2)c(C#N)c1 [Compound 32, 2-{-4-[(3,5-Dichloro-pyridin-2-ylmethyl)-amino]-7,8-dihydro-5H-pyrido[4,3-d]pyrimidin-6-yl}-5-methyl-benzonitrile] |
| 628 | 1190 | CN(C)c1ccc(CNc2ncnc3c2CN(c2ccc(Cl)cc2C#N)CC3)cn1 [Compound 12, 5-Chloro-2-(4-((6-(dimethylamino)pyridin-3-yl)methylamino)-7,8-dihydropyrido[4,3-d]pyrimidin-6(5H)-yl)benzonitrile] |
| 63 | 1810 | N#Cc1ccccc1N1CCc2ncnc(NCc3ccc(C(F)(F)F)nc3)c2C1 [Compound 10, 2-{4-[(6-Trifluoromethyl-pyridin-3-ylmethyl)-amino]-7,8-dihydro-5H-pyrido[4,3-d]pyrimidin-6-yl}-benzonitrile] |

The next lines start with the compound.

| Structure (SMILES) | IC50 (P2X3) [nM] | IC50 (P2X2/3) [nM] |
| --- | --- | --- |
| Cc1ccc(N2CCc3ncnc(N[C@H](CCO)c4ccc(C(F)F)nc4)c3C2)c(C#N)c1 [Compound 22, 2-{4-[(R)-1-(6-Difluoromethyl-pyridin-3-yl)-3-hydroxy-propylamino]-7,8-dihydro-5H-pyrido[4,3-d]pyrimidin-6-yl}-5-methyl-benzonitrile] | 13 | 43 |
| N#Cc1cc(Cl)ccc1N1CCc2ncnc(N[C@H](CO)c3ccc(C(F)F)nc3)c2C1 [Compound 72, 5-Chloro-2-[4-[(S)-1-(6-difluoromethyl-pyridin-3-yl)-2-hydroxy-ethylamino]-7,8-dihydro-5H-pyrido[4,3-d]pyrimidin-6-yl]-benzonitrile] | 16 | 404 |
| Cc1ccc(N2CCc3ncnc(N[C@H](CCO)c4ccc(C(F)(F)F)nc4)c3C2)c(C#N)c1 [Compound 64, 2-{4-[(R)-3-Hydroxy-1-(6-trifluoromethyl-pyridin-3-yl)-propylamino]-7,8-dihydro-5H-pyrido[4,3-d]pyrimidin-6-yl}-5-methyl-benzonitrile] | 23 | 59 |
| Cc1ccc(N2CCc3ncnc(NCc4ccc(C)c(S(C)(=O)=O)c4)c3C2)c(C#N)c1 [Compound 59, 2-{4-(3-Methanesulfonyl-4-methyl-benzylamino)-7,8-dihydro-5H-pyrido[4,3-d]pyrimidin-6-yl}-5-methyl-benzonitrile] | 16 | 55 |
| Cc1ccc(N2CCc3ncnc(NCc4ccc(Cl)c(-n5cnnc5)c4)c3C2)c(C#N)c1 [Compound 50, 2-[4-(4-Chloro-3-[1,2,4]triazol-4-yl-benzylamino)-7,8-dihydro-5H-pyrido[4,3-d]pyrimidin-6-yl]-5-methyl-benzonitrile] | 31 | 63 |
| Cc1ccc(N2CCc3ncnc(NCc4ccc(C)c(-n5cncn5)c4)c3C2)c(C#N)c1 [Compound 40, 5-Methyl-2-{4-(4-methyl-3-[1,2,4]triazol-1-yl-benzylamino)-7,8-dihydro-5H-pyrido[4,3-d]pyrimidin-6-yl}-benzonitrile] | 21 | 92 |
